PubChem BioAssay AID1259407 (Chemical Carcinogenesis Research Information System (CCRIS), 2018)
Activity calls are given as the source filed them. How the calls were made is not given here.

System: CCRIS mutagenicity, Ames/micronucleus/aberration tests
Assay: CCRIS mutagenicity studies

For O=Cc1ccccc1, the mutagenic call (End Point: IN VITRO CHROMOSOMAL ABERRATIONS, Test System: CHINESE HAMSTER OVARY CELLS, Metabolic Activation: NONE) was “inactive; negative”, the mutagenic call (End Point: IN VITRO CHROMOSOMAL ABERRATIONS, Test System: CHINESE HAMSTER OVARY CELLS, Metabolic Activation: RAT, LIVER, S-9, AROCLOR 1254) was “inactive; negative” and the mutagenic call (End Point: In vitro chromosomal aberrations, Test System: Chinese hamster lung (CHL/IU) cells, Metabolic Activation: Rat, Liver, S9, Phenobarbital and 5,6-benzoflavone) was “inactive; negative. weak positive response for ploidy is not dose related”. The mutagenic call (Test System: AMES SALMONELLA TYPHIMURIUM, Strain/Indicator: TA97, Metabolic Activation: NONE, Method: PREINCUBATION) was “inactive; negative”, the mutagenic call (Test System: AMES SALMONELLA TYPHIMURIUM, Strain/Indicator: TA97, Metabolic Activation: RAT, LIVER, S-9, AROCLOR 1254, Method: PREINCUBATION) was “inactive; negative” and the mutagenic call (Test System: AMES SALMONELLA TYPHIMURIUM, Strain/Indicator: TA98, Metabolic Activation: HAMSTER, LIVER, S-9, AROCLOR 1254 (10%), Method: PREINCUBATION) was “inactive; negative”. The mutagenic call (Test System: AMES SALMONELLA TYPHIMURIUM, Strain/Indicator: TA98, Metabolic Activation: NONE, Method: FLUCTUATION (MICROTITER)) was “inactive; negative”, the mutagenic call (Test System: AMES SALMONELLA TYPHIMURIUM, Strain/Indicator: TA98, Metabolic Activation: NONE, Method: PREINCUBATION) was “inactive; negative” and the mutagenic call (Test System: AMES SALMONELLA TYPHIMURIUM, Strain/Indicator: TA98, Metabolic Activation: RAT LIVER S-9, AROCLOR 1254, Method: FLUCTUATION (MICROTITER)) was “inactive; negative”. For the same compound, the mutagenic call (Test System: AMES SALMONELLA TYPHIMURIUM, Strain/Indicator: TA98, Metabolic Activation: RAT LIVER S-9, PHENOBARBITAL AND BETA-NAPHTHOFLAVONE, Method: PREINCUBATION) was “inactive; negative”, the mutagenic call (Test System: AMES SALMONELLA TYPHIMURIUM, Strain/Indicator: TA98, Metabolic Activation: RAT, LIVER, S-9, AROCLOR 1254 (10%), Method: PREINCUBATION) was “inactive; negative” and the mutagenic call (Test System: AMES SALMONELLA TYPHIMURIUM, Strain/Indicator: TA100, Metabolic Activation: HAMSTER, LIVER, S-9, AROCLOR 1254 (10%), Method: PREINCUBATION) was “inactive; negative”. For the same compound, the mutagenic call (Test System: AMES SALMONELLA TYPHIMURIUM, Strain/Indicator: TA100, Metabolic Activation: MOUSE, LIVER, S-9, AROCLOR 1254 (10%), Method: PREINCUBATION) was “inactive; negative”, the mutagenic call (Test System: AMES SALMONELLA TYPHIMURIUM, Strain/Indicator: TA100, Metabolic Activation: RAT LIVER S-9, AROCLOR 1254, Method: PREINCUBATION) was “inactive; negative” and the mutagenic call (Test System: AMES SALMONELLA TYPHIMURIUM, Strain/Indicator: TA100, Metabolic Activation: RAT LIVER S-9, PHENOBARBITAL AND BETA-NAPHTHOFLAVONE, Method: PREINCUBATION) was “inactive; negative”. For the same compound, the mutagenic call (Test System: AMES SALMONELLA TYPHIMURIUM, Strain/Indicator: TA100, Metabolic Activation: RAT, LIVER, S-9, AROCLOR 1254 (10%), Method: PREINCUBATION) was “inactive; negative”, the mutagenic call (Test System: AMES SALMONELLA TYPHIMURIUM, Strain/Indicator: TA102, Metabolic Activation: MOUSE, LIVER, S-9, AROCLOR 1254 (10%), Method: PREINCUBATION) was “inactive; negative” and the mutagenic call (Test System: AMES SALMONELLA TYPHIMURIUM, Strain/Indicator: TA102, Metabolic Activation: NONE, Method: PREINCUBATION) was “inactive; negative”. The mutagenic call (Test System: AMES SALMONELLA TYPHIMURIUM, Strain/Indicator: TA102, Metabolic Activation: RAT LIVER S-9, AROCLOR 1254, Method: PREINCUBATION) was “inactive; negative”, the mutagenic call (Test System: AMES SALMONELLA TYPHIMURIUM, Strain/Indicator: TA102, Metabolic Activation: RAT, LIVER, S-9, AROCLOR 1254 (10%), Method: PREINCUBATION) was “inactive; negative” and the mutagenic call (Test System: AMES SALMONELLA TYPHIMURIUM, Strain/Indicator: TA102, Metabolic Activation: RAT, LIVER, S-9, AROCLOR 1254, Method: PREINCUBATION) was “inactive; negative”. The mutagenic call (Test System: AMES SALMONELLA TYPHIMURIUM, Strain/Indicator: TA104, Metabolic Activation: MOUSE, LIVER, S-9, AROCLOR 1254 (10%), Method: PREINCUBATION) was “inactive; negative”, the mutagenic call (Test System: AMES SALMONELLA TYPHIMURIUM, Strain/Indicator: TA104, Metabolic Activation: NONE, Method: PREINCUBATION) was “inactive; negative” and the mutagenic call (Test System: AMES SALMONELLA TYPHIMURIUM, Strain/Indicator: TA104, Metabolic Activation: RAT LIVER S-9, AROCLOR 1254, Method: PREINCUBATION) was “inactive; negative”. For the same compound, the mutagenic call (Test System: AMES SALMONELLA TYPHIMURIUM, Strain/Indicator: TA104, Metabolic Activation: RAT, LIVER, S-9, AROCLOR 1254 (10%), Method: PREINCUBATION) was “inactive; negative”, the mutagenic call (Test System: AMES SALMONELLA TYPHIMURIUM, Strain/Indicator: TA1535, Metabolic Activation: HAMSTER, LIVER, S-9, AROCLOR 1254 (10%), Method: PREINCUBATION) was “inactive; negative” and the mutagenic call (Test System: AMES SALMONELLA TYPHIMURIUM, Strain/Indicator: TA1535, Metabolic Activation: NONE, Method: PREINCUBATION) was “inactive; negative”. For the same compound, the mutagenic call (Test System: AMES SALMONELLA TYPHIMURIUM, Strain/Indicator: TA1535, Metabolic Activation: RAT LIVER S-9, PHENOBARBITAL AND BETA-NAPHTHOFLAVONE, Method: PREINCUBATION) was “inactive; negative”, the mutagenic call (Test System: AMES SALMONELLA TYPHIMURIUM, Strain/Indicator: TA1535, Metabolic Activation: RAT, LIVER, S-9, AROCLOR 1254 (10%), Method: PREINCUBATION) was “inactive; negative” and the mutagenic call (Test System: AMES SALMONELLA TYPHIMURIUM, Strain/Indicator: TA1537, Metabolic Activation: HAMSTER, LIVER, S-9, AROCLOR 1254 (10%), Method: PREINCUBATION) was “inactive; negative”. The mutagenic call (Test System: AMES SALMONELLA TYPHIMURIUM, Strain/Indicator: TA1537, Metabolic Activation: NONE, Method: FLUCTUATION (MICROTITER)) was “inactive; negative”, the mutagenic call (Test System: AMES SALMONELLA TYPHIMURIUM, Strain/Indicator: TA1537, Metabolic Activation: NONE, Method: PREINCUBATION) was “inactive; negative” and the mutagenic call (Test System: AMES SALMONELLA TYPHIMURIUM, Strain/Indicator: TA1537, Metabolic Activation: RAT LIVER S-9, AROCLOR 1254, Method: FLUCTUATION (MICROTITER)) was “inactive; negative”. The mutagenic call (Test System: AMES SALMONELLA TYPHIMURIUM, Strain/Indicator: TA1537, Metabolic Activation: RAT LIVER S-9, PHENOBARBITAL AND BETA-NAPHTHOFLAVONE, Method: PREINCUBATION) was “inactive; negative”, the mutagenic call (Test System: AMES SALMONELLA TYPHIMURIUM, Strain/Indicator: TA1537, Metabolic Activation: RAT, LIVER, S-9, AROCLOR 1254 (10%), Method: PREINCUBATION) was “inactive; negative” and the mutagenic call (Test System: AMES SALMONELLA TYPHIMURIUM, Strain/Indicator: TA7001, Metabolic Activation: NONE, Method: FLUCTUATION (MICROTITER)) was “inactive; negative”. For the same compound, the mutagenic call (Test System: AMES SALMONELLA TYPHIMURIUM, Strain/Indicator: TA7001, Metabolic Activation: RAT LIVER S-9, AROCLOR 1254, Method: FLUCTUATION (MICROTITER)) was “inactive; negative”, the mutagenic call (Test System: AMES SALMONELLA TYPHIMURIUM, Strain/Indicator: TA7002, Metabolic Activation: NONE, Method: FLUCTUATION (MICROTITER)) was “inactive; negative” and the mutagenic call (Test System: AMES SALMONELLA TYPHIMURIUM, Strain/Indicator: TA7002, Metabolic Activation: RAT LIVER S-9, AROCLOR 1254, Method: FLUCTUATION (MICROTITER)) was “inactive; negative”. For the same compound, the mutagenic call (Test System: AMES SALMONELLA TYPHIMURIUM, Strain/Indicator: TA7003, Metabolic Activation: NONE, Method: FLUCTUATION (MICROTITER)) was “inactive; negative”, the mutagenic call (Test System: AMES SALMONELLA TYPHIMURIUM, Strain/Indicator: TA7003, Metabolic Activation: RAT LIVER S-9, AROCLOR 1254, Method: FLUCTUATION (MICROTITER)) was “inactive; negative” and the mutagenic call (Test System: AMES SALMONELLA TYPHIMURIUM, Strain/Indicator: TA7004, Metabolic Activation: NONE, Method: FLUCTUATION (MICROTITER)) was “inactive; negative”. The mutagenic call (Test System: AMES SALMONELLA TYPHIMURIUM, Strain/Indicator: TA7004, Metabolic Activation: RAT LIVER S-9, AROCLOR 1254, Method: FLUCTUATION (MICROTITER)) was “inactive; negative”, the mutagenic call (Test System: AMES SALMONELLA TYPHIMURIUM, Strain/Indicator: TA7005, Metabolic Activation: NONE, Method: FLUCTUATION (MICROTITER)) was “inactive; negative” and the mutagenic call (Test System: AMES SALMONELLA TYPHIMURIUM, Strain/Indicator: TA7005, Metabolic Activation: RAT LIVER S-9, AROCLOR 1254, Method: FLUCTUATION (MICROTITER)) was “active; positive”. The mutagenic call (Test System: AMES SALMONELLA TYPHIMURIUM, Strain/Indicator: TA7006, Metabolic Activation: NONE, Method: FLUCTUATION (MICROTITER)) was “inactive; negative”, the mutagenic call (Test System: AMES SALMONELLA TYPHIMURIUM, Strain/Indicator: TA7006, Metabolic Activation: RAT LIVER S-9, AROCLOR 1254, Method: FLUCTUATION (MICROTITER)) was “inactive; negative” and the mutagenic call (Test System: E.COLI, Strain/Indicator: WP2UVRA/PKM101, Metabolic Activation: NONE, Method: PREINCUBATION) was “inactive; negative”. The mutagenic call (Test System: E.COLI, Strain/Indicator: WP2UVRA/PKM101, Metabolic Activation: RAT LIVER S-9, PHENOBARBITAL AND BETA-NAPHTHOFLAVONE, Method: PREINCUBATION) was “inactive; negative” and the mutagenic call (Test System: MOUSE LYMPHOMA, Strain/Indicator: L5178Y (TK+/TK-), Metabolic Activation: NONE, Method: SUSPENSION/PLATE) was “active; positive”.
